Results reported in BindingDB's records for patent US20240174674 (Applied Pharmaceutical Science, 2024).

Tests used:
[1] = target: Proto-oncogene tyrosine-protein kinase receptor Ret [G810R] (Human, UniProt P07949, G810R); assay: HTRF Assay
[2] = target: Proto-oncogene tyrosine-protein kinase receptor Ret [V804M] (Human, UniProt P07949, V804M); assay: HTRF Assay
Proto-oncogene tyrosine-protein kinase receptor Ret [V804M], sequence (P07949 29-1114 V804M limits assumed): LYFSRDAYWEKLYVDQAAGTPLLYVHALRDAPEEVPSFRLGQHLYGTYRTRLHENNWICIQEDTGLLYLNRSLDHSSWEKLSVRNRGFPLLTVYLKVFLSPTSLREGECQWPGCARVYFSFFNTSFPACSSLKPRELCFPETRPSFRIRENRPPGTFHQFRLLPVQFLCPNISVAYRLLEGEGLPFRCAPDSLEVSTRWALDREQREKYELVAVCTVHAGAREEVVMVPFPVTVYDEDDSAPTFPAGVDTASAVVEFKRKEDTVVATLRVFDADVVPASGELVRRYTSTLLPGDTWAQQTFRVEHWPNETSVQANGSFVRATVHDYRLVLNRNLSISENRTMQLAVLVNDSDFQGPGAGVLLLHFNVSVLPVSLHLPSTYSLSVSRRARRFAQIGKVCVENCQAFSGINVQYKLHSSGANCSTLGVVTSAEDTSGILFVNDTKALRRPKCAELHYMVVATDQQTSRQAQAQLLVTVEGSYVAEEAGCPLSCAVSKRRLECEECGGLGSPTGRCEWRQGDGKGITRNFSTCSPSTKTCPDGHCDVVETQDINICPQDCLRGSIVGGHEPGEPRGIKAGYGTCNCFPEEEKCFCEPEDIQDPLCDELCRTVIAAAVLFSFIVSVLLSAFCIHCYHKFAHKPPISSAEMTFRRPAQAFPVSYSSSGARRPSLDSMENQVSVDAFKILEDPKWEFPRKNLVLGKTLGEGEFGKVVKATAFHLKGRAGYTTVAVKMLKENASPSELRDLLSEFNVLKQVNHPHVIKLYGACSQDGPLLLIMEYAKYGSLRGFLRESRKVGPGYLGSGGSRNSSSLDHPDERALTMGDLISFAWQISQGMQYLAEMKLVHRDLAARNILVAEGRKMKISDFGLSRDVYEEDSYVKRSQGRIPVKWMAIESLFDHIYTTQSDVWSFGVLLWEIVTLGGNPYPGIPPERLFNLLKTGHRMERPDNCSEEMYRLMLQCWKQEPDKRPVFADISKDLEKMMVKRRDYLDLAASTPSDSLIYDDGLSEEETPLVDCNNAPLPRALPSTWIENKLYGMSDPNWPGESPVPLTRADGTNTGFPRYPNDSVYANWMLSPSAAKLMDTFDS

Proto-oncogene tyrosine-protein kinase receptor Ret [G810R], sequence (P07949 29-1114 G810R limits assumed): as the sequence (P07949 29-1114 V804M limits assumed) above, with M776V, G782R counted along it

Row | SMILES | IC50 [1] | IC50 [2]
1 | CCOc1cc(-c2ccc(N3C[C@H](Oc4ccccn4)[C@@H](N)C3)nc2)c2c3cn[nH]c3nn2c1 [US20240174674, Compound 31] | 2.6 nM | 
2 | CCOc1cc(-c2ccc(N3C[C@H]4C[C@@H](NC(=O)c5c(F)cccc5Cl)C[C@H]4C3)nc2)c2c3cn[nH]c3nn2c1 [US20240174674, Compound 176] | 12.1 nM | 
3 | CCOc1cc(-c2ccc(N3CC[C@H](NC(=O)CC(C)C)[C@H](O)C3)nc2)c2c3cn[nH]c3nn2c1 [US20240174674, Compound 40] | 2.2 nM | 0.1 nM
4 | CCOc1cc(-c2ccc(N3CC[C@H](NC(=O)c4ncc(F)cc4Cl)[C@H](O)C3)nc2)c2c3cn[nH]c3nn2c1 [US20240174674, Compound 285] | 5 nM | 
